From PubChem BioAssay AID1745844 (Carcinogenic Potency Database (CPDB), 2022)
Calls of active or inactive are those of the source. The rule behind the calls is not given here.

Tested on: rodent lifetime carcinogenesis bioassay, tumor incidence TD50
Test: chronic cancer bioassays in animals – CPDB, compiled studies (AID 1745844)

O=[N+]([O-])c1cc([N+](=O)[O-])c(Cl)c(Cl)c1Cl
TD50 (mouse, strain B6AKF1, females, oral dosing, site: any site (literature study), lesion: several types, types named in the paper, dosed 76 weeks, study length 76 weeks): 52.6 mg/kg/day | TD50 (mouse, strain B6AKF1, females, oral dosing, site: lung, lesion: adenoma, dosed 76 weeks, study length 76 weeks): 108 mg/kg/day | TD50 (mouse, strain B6AKF1, males, oral dosing, site: lung, lesion: adenoma, dosed 76 weeks, study length 76 weeks): 49 mg/kg/day | TD50 (mouse, strain B6C3F1, males, oral dosing, site: any site (literature study), lesion: several types, types named in the paper, dosed 76 weeks, study length 76 weeks): 19.8 mg/kg/day

COC(=O)C1=C(C)NC(C)=C(C(=O)OCCc2ccc(N3CCN(C(c4ccccc4)c4ccccc4)CC3)cc2)C1c1cccc([N+](=O)[O-])c1 (stereo not drawn)
TD50 (mouse, strain B6C3F1, females, in feed, site: any site (literature study), lesion: several types, types named in the paper, dosed 78 weeks, study length 78 weeks): 293 mg/kg/day (inactive) | TD50 (mouse, strain B6C3F1, females, in feed, site: liver, lesion: hepatocellular adenoma, dosed 78 weeks, study length 78 weeks): 714 mg/kg/day (inactive) | carcinogen call (mouse, strain B6C3F1, females, in feed, site: lung, lesion: adenocarcinoma, dosed 78 weeks, study length 78 weeks): negative (inactive) | TD50 (mouse, strain B6C3F1, females, in feed, site: lung, lesion: alveolar/bronchiolar adenoma, dosed 78 weeks, study length 78 weeks): 243 mg/kg/day (inactive) | carcinogen call (mouse, strain B6C3F1, males, in feed, site: any site (literature study), lesion: several types, types named in the paper, dosed 78 weeks, study length 78 weeks): negative (inactive) | carcinogen call (mouse, strain B6C3F1, males, in feed, site: liver, lesion: hepatocellular adenoma, dosed 78 weeks, study length 78 weeks): negative (inactive) | TD50 (mouse, strain B6C3F1, males, in feed, site: liver, lesion: hepatocellular carcinoma, dosed 78 weeks, study length 78 weeks): 898 mg/kg/day (inactive) | carcinogen call (mouse, strain B6C3F1, males, in feed, site: lung, lesion: adenocarcinoma, dosed 78 weeks, study length 78 weeks): negative (inactive) | carcinogen call (mouse, strain B6C3F1, males, in feed, site: lung, lesion: alveolar/bronchiolar adenoma, dosed 78 weeks, study length 78 weeks): negative (inactive) | TD50 (rat, strain F344/DuCrj, females, in feed, site: any site (literature study), lesion: several types, types named in the paper, dosed 104 weeks, study length 104 weeks): 46.1 mg/kg/day (inactive) | TD50 (rat, strain F344/DuCrj, females, in feed, site: liver, lesion: hepatocellular adenoma, dosed 104 weeks, study length 104 weeks): 509 mg/kg/day (inactive) | carcinogen call (rat, strain F344/DuCrj, males, in feed, site: any site (literature study), lesion: several types, types named in the paper, dosed 104 weeks, study length 104 weeks): negative (inactive) | carcinogen call (rat, strain F344/DuCrj, males, in feed, site: liver, lesion: hepatocellular adenoma, dosed 104 weeks, study length 104 weeks): negative (inactive)

C=CF
TD50 (mouse, strain Charles River CD1, females, inhaled, site: Harderian gland, lesion: adenoma, dosed 67 weeks, study length 74 weeks): 4010 mg/kg/day | TD50 (mouse, strain Charles River CD1, females, inhaled, site: liver, lesion: hemangiosarcoma, dosed 67 weeks, study length 74 weeks): 25.4 mg/kg/day | TD50 (mouse, strain Charles River CD1, females, inhaled, site: lung, lesion: alveolar/bronchiolar adenoma, dosed 67 weeks, study length 74 weeks): 54.6 mg/kg/day | TD50 (mouse, strain Charles River CD1, females, inhaled, site: lung, lesion: several types, types named in the paper, dosed 67 weeks, study length 74 weeks): 54.6 mg/kg/day | TD50 (mouse, strain Charles River CD1, females, inhaled, site: mammary gland, lesion: adenocarcinoma, dosed 67 weeks, study length 74 weeks): 13.6 mg/kg/day | TD50 (mouse, strain Charles River CD1, females, inhaled, site: mammary gland, lesion: several types, types named in the paper, dosed 67 weeks, study length 74 weeks): 13.6 mg/kg/day | TD50 (mouse, strain Charles River CD1, males, inhaled, site: Harderian gland, lesion: adenoma, dosed 63 weeks, study length 78 weeks): 1000 mg/kg/day | TD50 (mouse, strain Charles River CD1, males, inhaled, site: liver, lesion: hemangiosarcoma, dosed 63 weeks, study length 78 weeks): 19.4 mg/kg/day | TD50 (mouse, strain Charles River CD1, males, inhaled, site: liver, lesion: hepatocellular adenoma, dosed 63 weeks, study length 78 weeks): 34.6 mg/kg/day | TD50 (mouse, strain Charles River CD1, males, inhaled, site: lung, lesion: alveolar/bronchiolar adenocarcinoma, dosed 63 weeks, study length 78 weeks): 12300 mg/kg/day | TD50 (mouse, strain Charles River CD1, males, inhaled, site: lung, lesion: alveolar/bronchiolar adenoma, dosed 63 weeks, study length 78 weeks): 5.78 mg/kg/day | TD50 (mouse, strain Charles River CD1, males, inhaled, site: lung, lesion: several types, types named in the paper, dosed 63 weeks, study length 78 weeks): 5.78 mg/kg/day | TD50 (rat, strain Charles River CD (Sprague-Dawley), females, inhaled, site: Zymbal's gland, lesion: squamous-cell carcinoma, sebaceous, dosed 52 weeks, study length 52 weeks): 639 mg/kg/day | TD50 (rat, strain Charles River CD (Sprague-Dawley), females, inhaled, site: Zymbal's gland, lesion: squamous-cell carcinoma, sebaceous, dosed 78 weeks, study length 78 weeks): 684 mg/kg/day | TD50 (rat, strain Charles River CD (Sprague-Dawley), females, inhaled, site: Zymbal's gland, lesion: squamous-cell carcinoma, sebaceous, dosed 93 weeks, study length 103 weeks): 1470 mg/kg/day | TD50 (rat, strain Charles River CD (Sprague-Dawley), females, inhaled, site: liver, lesion: hemangiosarcoma, dosed 93 weeks, study length 103 weeks): 16.6 mg/kg/day | TD50 (rat, strain Charles River CD (Sprague-Dawley), females, inhaled, site: liver, lesion: hepatocellular adenoma, dosed 93 weeks, study length 103 weeks): 183 mg/kg/day | TD50 (rat, strain Charles River CD (Sprague-Dawley), females, inhaled, site: liver, lesion: hepatocellular carcinoma, dosed 78 weeks, study length 78 weeks): 1440 mg/kg/day | TD50 (rat, strain Charles River CD (Sprague-Dawley), females, inhaled, site: liver, lesion: hepatocellular carcinoma, dosed 93 weeks, study length 103 weeks): 7770 mg/kg/day | TD50 (rat, strain Charles River CD (Sprague-Dawley), females, inhaled, site: liver, lesion: several types, types named in the paper, dosed 78 weeks, study length 78 weeks): 7380 mg/kg/day | TD50 (rat, strain Charles River CD (Sprague-Dawley), females, inhaled, site: liver, lesion: several types, types named in the paper, dosed 93 weeks, study length 103 weeks): 183 mg/kg/day | TD50 (rat, strain Charles River CD (Sprague-Dawley), males, inhaled, site: Zymbal's gland, lesion: squamous-cell carcinoma, sebaceous, dosed 52 weeks, study length 52 weeks): 213 mg/kg/day | TD50 (rat, strain Charles River CD (Sprague-Dawley), males, inhaled, site: Zymbal's gland, lesion: squamous-cell carcinoma, sebaceous, dosed 93 weeks, study length 103 weeks): 1090 mg/kg/day | TD50 (rat, strain Charles River CD (Sprague-Dawley), males, inhaled, site: liver, lesion: hemangiosarcoma, dosed 93 weeks, study length 103 weeks): 25 mg/kg/day | TD50 (rat, strain Charles River CD (Sprague-Dawley), males, inhaled, site: liver, lesion: hepatocellular adenoma, dosed 93 weeks, study length 103 weeks): 200 mg/kg/day

Nc1ccc(N)c(Cl)c1
TD50 (mouse, strain B6C3F1, females, in feed, site: any site (literature study), lesion: several types, types named in the paper, dosed 96 weeks, study length 104 weeks): 1430 mg/kg/day (inactive) | TD50 (mouse, strain B6C3F1, females, in feed, site: liver, lesion: hepatocellular adenoma + hepatocellular carcinoma + neoplastic nodule, dosed 96 weeks, study length 104 weeks): 1590 mg/kg/day | TD50 (mouse, strain B6C3F1, females, in feed, site: lung, lesion: alveolar/bronchiolar adenoma + alveolar/bronchiolar carcinoma, dosed 96 weeks, study length 104 weeks): 3330 mg/kg/day | TD50 (mouse, strain B6C3F1, males, in feed, site: any site (literature study), lesion: several types, types named in the paper, dosed 95 weeks, study length 104 weeks): 4380 mg/kg/day (inactive) | TD50 (mouse, strain B6C3F1, males, in feed, site: liver, lesion: hepatocellular adenoma + hepatocellular carcinoma + neoplastic nodule, dosed 95 weeks, study length 104 weeks): 1310 mg/kg/day | carcinogen call (rat, strain Fischer 344, females, in feed, site: any site (literature study), lesion: several types, types named in the paper, dosed 105 weeks, study length 105 weeks): negative (inactive) | TD50 (rat, strain Fischer 344, females, in feed, site: liver, lesion: hepatocellular adenoma + hepatocellular carcinoma + neoplastic nodule, dosed 105 weeks, study length 105 weeks): 3600 mg/kg/day | TD50 (rat, strain Fischer 344, males, in feed, site: any site (literature study), lesion: several types, types named in the paper, dosed 105 weeks, study length 105 weeks): 244 mg/kg/day (inactive) | TD50 (rat, strain Fischer 344, males, in feed, site: liver, lesion: hepatocellular adenoma + hepatocellular carcinoma + neoplastic nodule, dosed 105 weeks, study length 105 weeks): 665 mg/kg/day

CCN(CC)C(=S)S[Se](SC(=S)N(CC)CC)(SC(=S)N(CC)CC)SC(=S)N(CC)CC
TD50 (mouse, strain B6AKF1, females, oral dosing, site: any site (literature study), lesion: several types, types named in the paper, dosed 81 weeks, study length 81 weeks): 10.5 mg/kg/day | TD50 (mouse, strain B6AKF1, males, oral dosing, site: any site (literature study), lesion: several types, types named in the paper, dosed 81 weeks, study length 81 weeks): 8.45 mg/kg/day | TD50 (mouse, strain B6AKF1, males, oral dosing, site: liver, lesion: hepatoma, dosed 81 weeks, study length 81 weeks): 10.2 mg/kg/day | TD50 (mouse, strain B6AKF1, males, oral dosing, site: lung, lesion: adenoma, dosed 81 weeks, study length 81 weeks): 18.4 mg/kg/day | TD50 (mouse, strain B6C3F1, females, oral dosing, site: any site (literature study), lesion: several types, types named in the paper, dosed 81 weeks, study length 81 weeks): 3.46 mg/kg/day | TD50 (mouse, strain B6C3F1, females, oral dosing, site: liver, lesion: hepatoma, dosed 81 weeks, study length 81 weeks): 7.76 mg/kg/day | TD50 (mouse, strain B6C3F1, males, oral dosing, site: any site (literature study), lesion: several types, types named in the paper, dosed 81 weeks, study length 81 weeks): 0.638 mg/kg/day | TD50 (mouse, strain B6C3F1, males, oral dosing, site: liver, lesion: hepatoma, dosed 81 weeks, study length 81 weeks): 1.49 mg/kg/day | TD50 (mouse, strain B6C3F1, males, oral dosing, site: liver, lesion: several types, types named in the paper, dosed 81 weeks, study length 81 weeks): 1.28 mg/kg/day

CC1CN(N=O)C(=O)NC1=O (stereo not drawn)
carcinogen call (rat, strain MRC-Wistar, females, in drinking water, site: any site (literature study), lesion: several types, types named in the paper, dosed 52 weeks, study length 127 weeks): negative (inactive) | TD50 (rat, strain MRC-Wistar, females, in drinking water, site: liver, lesion: several types, types named in the paper, dosed 52 weeks, study length 127 weeks): 31.2 mg/kg/day | carcinogen call (rat, strain MRC-Wistar, males, in drinking water, site: any site (literature study), lesion: several types, types named in the paper, dosed 52 weeks, study length 127 weeks): negative (inactive) | carcinogen call (rat, strain MRC-Wistar, males, in drinking water, site: liver, lesion: one or several types, types not named, dosed 52 weeks, study length 127 weeks): negative (inactive)

C/C=C(\C)C(=O)O[C@@H]1CCN2CC=C(COC(=O)[C@](O)(C(C)C)[C@H](C)O)[C@H]12
TD50 (rat, strain ACI, males, i.p., site: any site (literature study), lesion: several types, types named in the paper, dosed 56 weeks, study length 92 weeks): 4.5 mg/kg/day | TD50 (rat, strain ACI, males, i.p., site: liver, lesion: several types, types named in the paper, dosed 56 weeks, study length 92 weeks): 1.91 mg/kg/day

O=C(O)CNCC(=O)O
TD50 (rat, strain MRC, females, in drinking water, site: any site (literature study), lesion: several types, types named in the paper, dosed 84 weeks, study length 104 weeks): 143 mg/kg/day (inactive) | carcinogen call (rat, strain MRC, males, in drinking water, site: any site (literature study), lesion: several types, types named in the paper, dosed 84 weeks, study length 104 weeks): negative (inactive)

CCOc1ccc(NC(N)=O)cc1
TD50 (rat, strain Osborne-Mendel, both sexes, in feed, site: liver, lesion: several types, types named in the paper, dosed 104 weeks, study length 104 weeks): 537 mg/kg/day

C#C[C@]1(O)CC[C@H]2[C@@H]3CCC4=C(CCC(=O)C4)[C@H]3CC[C@@]21C
TD50 (mouse, strain (C3H x RIII)F1 (MTV+), females, in feed, site: mammary tissue, wider than the gland, lesion: one or several types, types not named, dosed 104 weeks, study length 104 weeks): 2.13 mg/kg/day | TD50 (mouse, strain CFLP, females, in feed, site: liver, lesion: hepatocellular tumor, dosed 78 weeks, study length 78 weeks): 49.1 mg/kg/day (inactive) | carcinogen call (mouse, strain CFLP, males, in feed, site: liver, lesion: hepatocellular tumor, dosed 78 weeks, study length 78 weeks): negative (inactive) | carcinogen call (mouse, strain Swiss Webster, females, by gavage, site: liver, lesion: hepatocellular tumor, dosed 65 weeks, study length 80 weeks): negative (inactive)
